What follows are molecules tested on SARS-CoV-2 Delta USA/MD-HP05647/2021 (Lineage B.1.617.2) (assay: microbe, parasite or virus in culture). Details: Severe acute respiratory syndrome coronavirus 2, Vero C1008, 4 h; read-out: Vero E6 Delta CPE/EC50.
Type: cell-based
With `CC(C)(C)[C@H](NC(=O)NC1(CS(=O)(=O)C(C)(C)C)CCCCC1)C(=O)N1C[C@H]2[C@@H]([C@H]1C(=O)N[C@H](C#N)C[C@@H]1CCNC1=O)C2(C)C` [Compound 16] the EC50 was 2980 nM.
In the case of `CC(C)(C)[C@H](NC(=O)C12CC(C1)C2)C(=O)N1C[C@H]2[C@@H]([C@H]1C(=O)N[C@H](C#N)C[C@@H]1CCNC1=O)C2(C)C` [Compound 20], the EC50 is reported as 377 nM.
In the case of `CC(C)(C)[C@H](NC(=O)c1cnc2[nH]ccc2c1)C(=O)N1C[C@H]2[C@@H]([C@H]1C(=O)N[C@H](C#N)C[C@@H]1CCNC1=O)C2(C)C` [Compound 32], the EC50 is reported as 101000 nM.
In the case of `CC(C)(C)[C@H](NC(=O)CC#N)C(=O)N1C[C@H]2[C@@H]([C@H]1C(=O)N[C@H](C#N)C[C@@H]1CCNC1=O)C2(C)C` [Compound 33], the EC50 is reported as 940 nM.
`CC(C)(C)[C@H](NC(=O)C12CC(F)(C1)C2)C(=O)N1C[C@H]2[C@@H]([C@H]1C(=O)N[C@H](C#N)C[C@@H]1CCNC1=O)C2(C)C` [Compound 34] was tested, and the EC50 was 275 nM.
For `CNC(=S)N[C@H](C(=O)N1C[C@H]2[C@@H]([C@H]1C(=O)N[C@H](C#N)C[C@@H]1CCNC1=O)C2(C)C)C(C)(C)C` [Compound 35], the EC50 was 77.9 nM.
`CN(C)S(=O)(=O)N[C@H](C(=O)N1C[C@H]2[C@@H]([C@H]1C(=O)N[C@H](C#N)C[C@@H]1CCNC1=O)C2(C)C)C(C)(C)C` [Compound 47, (1R,2S,5S)—N—((S)-1-cyano-2-((S)-2-oxopyrrolidin-3-yl)ethyl)-3-((S)-2-((N,N-dimethylsulfamoyl)amino)-3,3-dimethylbutanoyl)-6,6-dimethyl-3-azabicyclo[3.1.0]hexane-2-carboxamide] showed an EC50 of 242 nM.
`CC(C)(C)[C@H](NS(=O)(=O)N1CCOCC1)C(=O)N1C[C@H]2[C@@H]([C@H]1C(=O)N[C@H](C#N)C[C@@H]1CCNC1=O)C2(C)C` [Compound 49] was tested, and the EC50 was 1580 nM.
`CC1(C)[C@@H]2[C@@H](C(=O)N[C@H](C#N)C[C@@H]3CCNC3=O)N(C(=O)[C@@H](NC(=O)C(F)(F)F)C34CC(C3)C4)C[C@@H]21` [Compound 50] was tested, and the EC50 was 571 nM.
Work on `CC(C)(C)[C@H](NS(=O)(=O)c1ccc(F)cc1)C(=O)N1C[C@H]2[C@@H]([C@H]1C(=O)N[C@H](C#N)C[C@@H]1CCNC1=O)C2(C)C` [Compound 53, (1R,2S,5S)—N—((S)-1-cyano-2-((S)-2-oxopyrrolidin-3-yl)ethyl)-3-((S)-2-((4-fluorophenyl)sulfonamido)-3,3-dimethylbutanoyl)-6,6-dimethyl-3-azabicyclo[3.1.0]hexane-2-carboxamide] yielded an EC50 of 14.9 nM.
With `CC(C)(C)[C@H](NS(=O)(=O)c1ccc(Cl)s1)C(=O)N1C[C@H]2[C@@H]([C@H]1C(=O)N[C@H](C#N)C[C@@H]1CCNC1=O)C2(C)C` [Compound 54] the EC50 was < 4.5 nM.
For `CC(C)(C)[C@H](NC(=O)CS(C)(=O)=O)C(=O)N1C[C@H]2[C@@H]([C@H]1C(=O)N[C@H](C#N)C[C@@H]1CCNC1=O)C2(C)C` [Compound 64], the EC50 was 1330 nM.
With `C=C(F)C(=O)N[C@H](C(=O)N1C[C@H]2[C@@H]([C@H]1C(=O)N[C@H](C#N)C[C@@H]1CCNC1=O)C2(C)C)C(C)(C)C` [Compound 66] the EC50 was 93.5 nM.
`CCNC(=S)N[C@H](C(=O)N1C[C@H]2[C@@H]([C@H]1C(=O)N[C@H](C#N)C[C@@H]1CCNC1=O)C2(C)C)C(C)(C)C` [Compound 72] gave an EC50 of 261 nM.
In the case of `CC(C)(C)[C@H](NC(=O)C(F)(Cl)C(F)(F)F)C(=O)N1C[C@H]2[C@@H]([C@H]1C(=O)N[C@H](C#N)C[C@@H]1CCNC1=O)C2(C)C` (some centres unmarked) [Compound 75], the EC50 is reported as 45 nM.
Molecule `CC(C)(C)[C@H](NC(=S)NC1CC1)C(=O)N1C[C@H]2[C@@H]([C@H]1C(=O)N[C@H](C#N)C[C@@H]1CCNC1=O)C2(C)C` [Compound 76] has an EC50 of 834 nM.
For `CN(C)C(=S)N[C@H](C(=O)N1C[C@H]2[C@@H]([C@H]1C(=O)N[C@H](C#N)C[C@@H]1CCNC1=O)C2(C)C)C(C)(C)C` [Compound 77], the EC50 was 1540 nM.
`CC(C)(C)[C@H](NC(=O)C(F)(F)C(F)(F)Cl)C(=O)N1C[C@H]2[C@@H]([C@H]1C(=O)N[C@H](C#N)C[C@@H]1CCNC1=O)C2(C)C` [Compound 80] showed an EC50 of 20.2 nM.
Work on `CC(C)(C)[C@H](NC(=O)Cc1ccc2c(c1)CCC2)C(=O)N1C[C@H]2[C@@H]([C@H]1C(=O)N[C@H](C#N)C[C@@H]1CCNC1=O)C2(C)C` [Compound 82] yielded an EC50 of 9.52 nM.
Molecule `CC(C)(C)[C@H](NS(=O)(=O)c1ccc2c(c1)CCO2)C(=O)N1C[C@H]2[C@@H]([C@H]1C(=O)N[C@H](C#N)C[C@@H]1CCNC1=O)C2(C)C` [Compound 83] has an EC50 of 20.4 nM.
With `CC(C)(C)[C@H](NS(=O)(=O)c1cccc2ccccc12)C(=O)N1C[C@H]2[C@@H]([C@H]1C(=O)N[C@H](C#N)C[C@@H]1CCNC1=O)C2(C)C` [Compound 85] the EC50 was < 4.5 nM.
`CC(C)(C)NC(=O)N[C@H](C(=O)N1C[C@H]2[C@@H]([C@H]1C(=O)N[C@H](C#N)C[C@@H]1CCNC1=O)C2(C)C)C(C)(C)C` [Compound 87] showed an EC50 of 577 nM.
`CC(C)(C)[C@H](NS(=O)(=O)c1ccc(OC(F)(F)F)cc1)C(=O)N1C[C@H]2[C@@H]([C@H]1C(=O)N[C@H](C#N)C[C@@H]1CCNC1=O)C2(C)C` [Compound 89] gave an EC50 of 61.8 nM.
Molecule `CC(C)(C)[C@H](NS(=O)(=O)c1ccc(C(F)(F)F)cc1)C(=O)N1C[C@H]2[C@@H]([C@H]1C(=O)N[C@H](C#N)C[C@@H]1CCNC1=O)C2(C)C` [Compound 90] has an EC50 of 3.4 nM.
For `CC(C)(C)[C@H](NS(=O)(=O)c1cccnc1)C(=O)N1C[C@H]2[C@@H]([C@H]1C(=O)N[C@H](C#N)C[C@@H]1CCNC1=O)C2(C)C` [Compound 93], the EC50 was 372 nM.
With `CC(C)(C)[C@H](NS(=O)(=O)c1ccccc1)C(=O)N1C[C@H]2[C@@H]([C@H]1C(=O)N[C@H](C#N)C[C@@H]1CCNC1=O)C2(C)C` [Compound 95] the EC50 was 10.7 nM.
With `Cc1ccc(S(=O)(=O)N[C@H](C(=O)N2C[C@H]3[C@@H]([C@H]2C(=O)N[C@H](C#N)C[C@@H]2CCNC2=O)C3(C)C)C(C)(C)C)cc1` [Compound 96] the EC50 was < 4.5 nM.
`CC(C)(C)[C@H](NS(=O)(=O)c1ccc(F)c(F)c1)C(=O)N1C[C@H]2[C@@H]([C@H]1C(=O)N[C@H](C#N)C[C@@H]1CCNC1=O)C2(C)C` [Compound 99] was tested, and the EC50 was 22.2 nM.
`CC(C)(C)[C@H](NS(=O)(=O)c1cccs1)C(=O)N1C[C@H]2[C@@H]([C@H]1C(=O)N[C@H](C#N)C[C@@H]1CCNC1=O)C2(C)C` [Compound 100] gave an EC50 of 36.8 nM.
`COc1ccc(S(=O)(=O)N[C@H](C(=O)N2C[C@H]3[C@@H]([C@H]2C(=O)N[C@H](C#N)C[C@@H]2CCNC2=O)C3(C)C)C(C)(C)C)cc1` [Compound 101] showed an EC50 of 0.31 nM.
`CC(C)(C)[C@H](NS(=O)(=O)c1ccc2ccccc2c1)C(=O)N1C[C@H]2[C@@H]([C@H]1C(=O)N[C@H](C#N)C[C@@H]1CCNC1=O)C2(C)C` [Compound 102] was tested, and the EC50 was < 4.5 nM.
Work on `CC(C)[C@H]1CC[C@H](C)C[C@@H]1OCC(=O)N[C@H](C(=O)N1C[C@H]2[C@@H]([C@H]1C(=O)N[C@H](C#N)C[C@@H]1CCNC1=O)C2(C)C)C(C)(C)C` [Compound 110] yielded an EC50 of 2020 nM.
With `CC(C)(C)[C@H](NS(=O)(=O)c1cc2ccccc2s1)C(=O)N1C[C@H]2[C@@H]([C@H]1C(=O)N[C@H](C#N)C[C@@H]1CCNC1=O)C2(C)C` [Compound 111] the EC50 was < 4.5 nM.
For `Cc1csc(S(=O)(=O)N[C@H](C(=O)N2C[C@H]3[C@@H]([C@H]2C(=O)N[C@H](C#N)C[C@@H]2CCNC2=O)C3(C)C)C(C)(C)C)c1` [Compound 112], the EC50 was 63.4 nM.
Molecule `CC(C)(C)[C@H](NS(=O)(=O)c1ccc(F)s1)C(=O)N1C[C@H]2[C@@H]([C@H]1C(=O)N[C@H](C#N)C[C@@H]1CCNC1=O)C2(C)C` [Compound 113] has an EC50 of 16.6 nM.
`CC(C)(C)[C@H](NS(=O)(=O)c1sccc1Cl)C(=O)N1C[C@H]2[C@@H]([C@H]1C(=O)N[C@H](C#N)C[C@@H]1CCNC1=O)C2(C)C` [Compound 114] showed an EC50 of 16.4 nM.
Molecule `CN(C)[C@@H]1C[C@@H](C(=O)N[C@H](C#N)C[C@@H]2CCNC2=O)N(C(=O)[C@@H](NC(=O)C(F)(F)F)C(C)(C)C)C1` [Compound 116] has an EC50 of 4000 nM.
Molecule `CC(C)(C)c1ccc(S(=O)(=O)N[C@H](C(=O)N2C[C@H]3[C@@H]([C@H]2C(=O)N[C@H](C#N)C[C@@H]2CCNC2=O)C3(C)C)C(C)(C)C)s1` [Compound 117] has an EC50 of 337 nM.
With `Cc1ccc(S(=O)(=O)N[C@H](C(=O)N2C[C@H]3[C@@H]([C@H]2C(=O)N[C@H](C#N)C[C@@H]2CCNC2=O)C3(C)C)C(C)(C)C)s1` [Compound 118] the EC50 was 23.5 nM.
`CC(C)(C)[C@H](NC(=O)c1ccc2c(c1)CCC2)C(=O)N1C[C@H]2[C@@H]([C@H]1C(=O)N[C@H](C#N)C[C@@H]1CCNC1=O)C2(C)C` [Compound 120] gave an EC50 of 8000 nM.
`CC(C)(C)[C@H](NS(=O)(=O)c1ccc(C2CC2)cc1)C(=O)N1C[C@H]2[C@@H]([C@H]1C(=O)N[C@H](C#N)C[C@@H]1CCNC1=O)C2(C)C` [Compound 121] was tested, and the EC50 was < 4.5 nM.
`CC(C)(C)[C@H](NS(=O)(=O)c1ccns1)C(=O)N1C[C@H]2[C@@H]([C@H]1C(=O)N[C@H](C#N)C[C@@H]1CCNC1=O)C2(C)C` [Compound 122] gave an EC50 of 180 nM.
`CC(C)(C)[C@H](NC(=O)C(F)(F)C(F)(F)C(F)(F)F)C(=O)N1C[C@H]2[C@@H]([C@H]1C(=O)N[C@H](C#N)C[C@@H]1CCNC1=O)C2(C)C` [Compound 133] was tested, and the EC50 was 437 nM.
In the case of `CC(C)(C)[C@H](NC(=O)C1(C(F)(F)F)CC1)C(=O)N1C[C@H]2[C@@H]([C@H]1C(=O)N[C@H](C#N)C[C@@H]1CCNC1=O)C2(C)C` [Compound 151], the EC50 is reported as 1630 nM.
With `Cc1cc(S(=O)(=O)N[C@H](C(=O)N2C[C@H]3[C@@H]([C@H]2C(=O)N[C@H](C#N)C[C@@H]2CCNC2=O)C3(C)C)C(C)(C)C)sc1Cl` [Compound 168] the EC50 was 21.8 nM.

Same assay, conditions: read-out: Vero E6 Delta CPE/EC50
For `CC(C)(C)[C@H](NC(=O)C12CC(C1)C2)C(=O)N1C[C@H]2[C@@H]([C@H]1C(=O)N[C@H](C#N)C[C@@H]1CCNC1=O)C2(C)C` [Compound 20], the EC50 was 392 nM.
Molecule `CNC(=S)N[C@H](C(=O)N1C[C@H]2[C@@H]([C@H]1C(=O)N[C@H](C#N)C[C@@H]1CCNC1=O)C2(C)C)C(C)(C)C` [Compound 35] has an EC50 of 148 nM.
In the case of `CC(C)(C)[C@H](NS(=O)(=O)c1ccc(F)cc1)C(=O)N1C[C@H]2[C@@H]([C@H]1C(=O)N[C@H](C#N)C[C@@H]1CCNC1=O)C2(C)C` [Compound 53, (1R,2S,5S)—N—((S)-1-cyano-2-((S)-2-oxopyrrolidin-3-yl)ethyl)-3-((S)-2-((4-fluorophenyl)sulfonamido)-3,3-dimethylbutanoyl)-6,6-dimethyl-3-azabicyclo[3.1.0]hexane-2-carboxamide], the EC50 is reported as 20.4 nM.
`C=C(F)C(=O)N[C@H](C(=O)N1C[C@H]2[C@@H]([C@H]1C(=O)N[C@H](C#N)C[C@@H]1CCNC1=O)C2(C)C)C(C)(C)C` [Compound 66] gave an EC50 of 97.8 nM.
Molecule `CC(C)(C)[C@H](NC(=O)C(F)(Cl)C(F)(F)F)C(=O)N1C[C@H]2[C@@H]([C@H]1C(=O)N[C@H](C#N)C[C@@H]1CCNC1=O)C2(C)C` (some centres unmarked) [Compound 75] has an EC50 of 50 nM.
